Results reported in publication PMC6371759 (Chemical Science, 2018).

Target: human serum albumin (HSA) (Homo sapiens, UniProt P02768)
Assay: tryptophan fluorescence quenching
Format: binding

Sequence of human serum albumin (HSA) (P02768 25-609): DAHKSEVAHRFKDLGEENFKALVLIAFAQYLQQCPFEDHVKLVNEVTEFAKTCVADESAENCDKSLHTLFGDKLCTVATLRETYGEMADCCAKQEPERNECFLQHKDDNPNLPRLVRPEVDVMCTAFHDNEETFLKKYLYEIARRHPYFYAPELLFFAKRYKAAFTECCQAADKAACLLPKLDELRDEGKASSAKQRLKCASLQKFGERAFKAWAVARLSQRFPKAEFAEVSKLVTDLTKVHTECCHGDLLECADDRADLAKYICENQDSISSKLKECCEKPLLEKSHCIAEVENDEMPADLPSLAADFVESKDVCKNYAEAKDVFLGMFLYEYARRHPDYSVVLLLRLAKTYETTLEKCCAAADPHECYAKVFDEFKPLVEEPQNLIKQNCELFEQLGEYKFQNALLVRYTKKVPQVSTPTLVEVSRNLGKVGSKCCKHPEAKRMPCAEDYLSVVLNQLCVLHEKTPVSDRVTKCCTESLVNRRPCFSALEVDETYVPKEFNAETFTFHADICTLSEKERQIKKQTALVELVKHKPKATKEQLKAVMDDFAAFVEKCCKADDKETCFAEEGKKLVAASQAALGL

In the case of `C[C@]12CC[C@H]3[C@@H](CCC4=CC(=O)CC[C@@]43C)[C@@H]1CC[C@@H]2O` [testosterone], the Kd is reported as 363 ± 83 µM.
